Results from patent US7674816B2, “Substituted melatonin derivatives, process for their preparation, and methods of use” (Abraxis BioScience, LLC, priority 2003, dated 2010).

Assays:
GABAA α-1 site [1] = assay: GABAA alpha 1 site competitive binding (3H-flunitrazepam); settings: Conc. 1.0E−4 M, bovine hippocampus
Source text: (§1) The binding profile of exemplary inventive compounds to neurotransmitter receptor sites is set forth below in Table 1. The characterization of the receptors, isolation of the membrane, and enzyme assay have been described in detail previously (see, e.g., Cole et al., Life Sci., 35, 1755 (1984), Lawrence et al., J. Neurochem., 45(3), 798 (1985), Sweetnam et al., Mol. Pharmacology, 29, 299 (1986), Zarkovsky et al., Neuropharmacology, 26 (7A), 737 (1987), Li et al., Eur. J. Pharmacology, 413, 63 (2001), and Markela et al., Mol. Pharmacology, 52, 380 (1997)).
(§2) The melatonin binding site on GABAA was defined using a series of competitive binding assays. Frozen bovine hippocampus was thawed and homogenized in 40 volumes of ice-cold 0.32 M sucrose. The suspension was centrifuged at 1000×g for 10 minutes at 4° C. The pellet was washed twice in assay buffer and reacted with radioactive ligand in presence or absence of melatonin at 10^−4 M final concentration. The amount of radioactivity remained on the Whatman filter following filtration of the reaction mix and two washes with assay buffer was determined using a liquid scintillation counter. Inhibition of radioactive ligand binding by melatonin represents the competitive binding of melatonin to the same site as the radioactive ligand. GABAA agonist site, GABAA α-1 site, GABAA α-5 site, GABAA α-6 site, and GABAA Cl channel were assayed using ^3H-GABA, ^3H-flunitrazepam, ^3H-RY80, ^3H-Ro 15-4513, and ^3H-TBOB.

GABAA Cl channel [2] = assay: GABAA Cl channel, TBOB site competitive binding (3H-TBOB), single concentration; settings: Conc. 1.0E−4 M, bovine hippocampus
Source text: as §1, §2

GABAA α-5 site = target: T1, GABAA α-5 site (Bos taurus, UniProt P22300+Q08E50); assay: GABAA alpha 5 site competitive binding (3H-RY80); settings: bovine hippocampus
T1 construct: Frozen bovine hippocampus was thawed and homogenized in 40 volumes of ice-cold 0.32 M sucrose; from tissue; host or cells: bovine hippocampus membranes (washed pellet)
T1 sequence (Q08E50 32-462): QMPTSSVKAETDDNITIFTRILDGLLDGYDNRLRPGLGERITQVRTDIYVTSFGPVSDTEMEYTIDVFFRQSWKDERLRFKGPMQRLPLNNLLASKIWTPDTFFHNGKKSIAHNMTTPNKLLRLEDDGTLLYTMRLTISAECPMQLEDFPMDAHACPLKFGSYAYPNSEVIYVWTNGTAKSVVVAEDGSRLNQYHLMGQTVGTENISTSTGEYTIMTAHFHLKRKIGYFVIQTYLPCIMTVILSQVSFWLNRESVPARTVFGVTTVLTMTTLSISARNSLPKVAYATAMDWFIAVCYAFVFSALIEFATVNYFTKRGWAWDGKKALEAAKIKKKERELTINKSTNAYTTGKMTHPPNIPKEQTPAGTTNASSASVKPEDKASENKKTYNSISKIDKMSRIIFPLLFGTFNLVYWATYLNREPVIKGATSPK
T1 sequence (P22300 40-475): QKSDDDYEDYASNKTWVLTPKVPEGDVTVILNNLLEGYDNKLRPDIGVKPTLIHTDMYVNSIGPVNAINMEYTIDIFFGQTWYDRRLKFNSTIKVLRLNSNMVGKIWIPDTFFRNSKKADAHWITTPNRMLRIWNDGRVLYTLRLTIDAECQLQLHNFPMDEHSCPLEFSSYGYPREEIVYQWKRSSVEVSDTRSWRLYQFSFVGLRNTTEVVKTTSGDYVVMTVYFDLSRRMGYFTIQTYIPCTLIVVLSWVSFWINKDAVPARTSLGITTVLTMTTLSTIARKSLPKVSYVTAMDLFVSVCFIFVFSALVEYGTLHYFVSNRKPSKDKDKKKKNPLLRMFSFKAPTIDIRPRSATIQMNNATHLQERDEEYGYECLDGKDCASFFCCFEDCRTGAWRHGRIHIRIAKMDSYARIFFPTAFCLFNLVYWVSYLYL
Experimental: Frozen bovine hippocampus was thawed and homogenized in 40 volumes of ice-cold 0.32 M sucrose. The suspension was centrifuged at 1000×g for 10 minutes at 4° C. […] The amount of radioactivity remained on the Whatman filter following filtration of the reaction mix and two washes with assay buffer was determined using a liquid scintillation counter. Inhibition of radioactive ligand binding by melatonin represents the competitive binding of melatonin to the same site as the radioactive ligand.

GABAA α-6 site [3] = assay: GABAA alpha 6 site competitive binding (3H-Ro 15-4513); settings: Conc. 1.0E−4 M, bovine hippocampus
Source text: as §1, §2

GABAA α-1 site [4] = assay: GABAA alpha 1 site competitive binding (3H-flunitrazepam); settings: Conc. 1.0E−3 M, bovine hippocampus
GABAA α-6 site [5] = assay: GABAA alpha 6 site competitive binding (3H-Ro 15-4513); settings: Conc. 1.0E−3 M, bovine hippocampus
GABAA agonist site = GABAA agonist site competitive binding (3H-GABA); settings: Conc. 1.0E−3 M, bovine hippocampus
Source text: as §1, §2

GABAA Cl channel [6] = assay: GABAA Cl channel, TBOB site competitive binding (3H-TBOB), single concentration; settings: Conc. 1.0E−3 M, bovine hippocampus

## COc1ccc(-c2[nH]c3ccc(OC)cc3c2CCNC(C)=O)cc1
GABAA α-1 site [1]
  Specific binding, GABAA Alpha 1 site (inhibition of radioactive ligand binding): −8.16%
GABAA Cl channel [2]
  Specific binding, GABAA Ion Channels Cl−, TBOB site (inhibition of radioactive ligand binding): 108.82%
GABAA α-5 site; Conc. 1.0E−4 M
  Specific binding, GABAA Alpha 5 site (inhibition of radioactive ligand binding): 7.09%
GABAA α-6 site [3]
  Specific binding, GABAA Alpha 6 site (inhibition of radioactive ligand binding): 6.68%

## COc1cc2c(CCNC(C)=O)c[nH]c2cc1Cl [6-Chloromelatonin]
GABAA α-1 site [4]
  Specific binding, GABAA Alpha 1 site (inhibition of radioactive ligand binding): 12.49%
GABAA α-6 site [5]
  Specific binding, GABAA Alpha 6 site (inhibition of radioactive ligand binding): −7.74%
GABAA agonist site
  Specific binding, GABAA Agonist site (inhibition of radioactive ligand binding): −13.74%
GABAA Cl channel [6]
  Specific binding, GABAA Ion Channels Cl−, TBOB site (inhibition of radioactive ligand binding): 43.63%
GABAA α-5 site; Conc. 1.0E−3 M
  Specific binding, GABAA Alpha 5 site (inhibition of radioactive ligand binding): 13.95%
